{"source": "patent US10973777B2", "about": "“Methods for treatment of interstitial cystitis” (Panag Pharma Inc., priority 2017, dated 2021)", "key": {"[1]": {"system": "NGF-induced bladder hyper-reflexia", "conditions": "rats; systemic administration; cited from earlier work"}, "[2]": {"system": "LPS-induced cystitis", "assay": "Local bladder inflammation model, Example 2 (instillation), intravital microscopy of the bladder", "format": "in vivo, female BALB/c mice", "conditions": "LPS 150 μg/ml instilled 30 min, then instillation, BCP 100 mg/kg; for leukocyte rolling in bladder venules: FIG. 10; for leukocyte adhesion in bladder venules: FIGS. 9 and 12; for capillary perfusion quantified through functional capillary density (FCD): FIGS. 11 and 13"}, "[3]": {"system": "LPS-induced cystitis", "assay": "Local bladder inflammation model, Example 4 (oral Beta-C alone or with MSM), intravital microscopy", "format": "in vivo, female BALB/c mice", "conditions": "for leukocyte adhesion in bladder venules: FIGS. 14, 16; for capillary perfusion quantified through functional capillary density (FCD): FIGS. 15, 17", "description": "Laparotomy was then performed to gain access to the bladder and to have a visual confirmation of bladder instillation success. […] This was then followed by an insertion of a P10 catheter into the urethra. […] LPS solution (150 μg/ml) was slowly instilled and held in the bladder for 30 minutes. The animal was then rotated on the heating pad at a halfway point to ensure that all sides of bladder were equally exposed to LPS.\nAnimals and local bladder inflammation model were as described hereinabove in Example 2. The groups were as follows:\nIn the oral gavage groups, the mice were treated with 100 mg/kg beta-C or 100 mg/kg beta-C in 100 mg/kg methylsulfonylmethane (MSM) by gavage. In groups other than the Healthy Animal Control administered oral beta-C, the administration was 60 minutes prior to LPS exposure. LPS (local) was provided as detailed hereinabove in Example 2. Intravesical MSM was provided similar to as detailed hereinabove in Example 1 for DMSO. Leukocyte adherence, leukocyte rolling and functional capillary density were measured using the techniques as described hereinabove in Example 2. Results were assessed using the statistical methods described hereinabove in Example 2."}, "[4]": {"system": "LPS-induced cystitis", "assay": "Pain assessment scoring (behavioural), Example 5", "format": "in vivo, female BALB/c mice", "description": "(§1) Studies were carried out to investigate the anesthetic effect of oral administration of Beta-C. Animals and local bladder inflammation model were as described hereinabove in Example 2. The groups were as follows:\n(§2) In the oral gavage groups, the mice were treated with 100 mg/kg beta-C by gavage. In the LPS group administered oral beta-C, the administration was 60 minutes prior to LPS exposure. LPS (local) was provided as detailed hereinabove in Example 2.\nHealthy animals were scored behaviourally to set an individual baseline for each specimen. Animals were then anesthetized with isoflurane and given LPS instillation to induce cystitis-like conditions in bladder. After the induction, animals were then woken up and allowed to normally explore/feed themselves in their cage under observation. Changes in behaviour and appearance (i.e. breathing rate, posture, motor activity, eye opening) were then scored again. Each behavioural parameter received a possible maximum score of 10, totaling to a possible maximum of 40. The minimum score possible is a 0, which implies that the parameter is unaffected as a pre-existing condition. Breathing Rate—each decrease in cycle warrants an increase in score. Opening of the eyes—0 complete opening, 5 half opening, 10 fully closed, and 2 and 7 are intermediate positions. Posture—no change is 0, full rounded back OR limp is 10. Intermediate postures gain intermediate scores. Motor activity—activity (exploring, moving, grooming) within 20 seconds. e.g. no movement for 10 seconds (=50%)=5 points; no movement for 2 seconds (=10%)=1 point. The scoring system is based on that reported by Eschalier et al.^37 but has the additional parameter of motor activity."}, "[5]": {"system": "LPS-induced cystitis", "assay": "Electronic von Frey aesthesiometry, Example 5", "format": "in vivo, female BALB/c mice", "conditions": "oral BCP 100 mg/kg 60 minutes prior to LPS; T0 vs T1; FIG. 26", "description": "as §1, §2\nThis was a quantified pain assessment that measures the amount of force applied in grams, before an animal reacts (e.g. withdraws) to the noxious stimulus. This quantification allows for accurate detection of pain relief effectiveness of a treatment. Healthy animals were scored before any treatments or cystitis induction to set an individual baseline for each specimen. The animals were also scored after the cystitis was induced and the treatment effect could be measured. Each individual animal was compared to itself before the induction, as well as a summarized group comparison was performed."}, "[6]": {"system": "inflammatory and neuropathic pain", "conditions": "mouse models of inflammatory and neuropathic pain; cited from earlier work"}, "[7]": {"conditions": "compared with procaine; cited from earlier work"}, "[8]": {"system": "LPS-induced cystitis", "assay": "Systemic (endotoxemia-induced) bladder inflammation model, intravital microscopy of the bladder", "conditions": "LPS 10 mg/kg i.p."}, "[9]": {"system": "severe IC", "conditions": "patients with severe IC; intravesical DMSO; cited from earlier work"}, "[10]": {"system": "LPS-induced cystitis", "assay": "Local (endotoxin-induced) bladder inflammation model, Example 1, intravital microscopy of the bladder", "conditions": "LPS 100 μg/ml instilled 30 min, then drug instillation (DMSO 40%)"}, "[11]": {"system": "interstitial cystitis", "conditions": "clinical case studies for IC; cited from earlier work"}, "[12]": {"system": "interstitial cystitis", "conditions": "patients with IC; oral therapy; cited from earlier work"}, "[13]": {"conditions": "healthy animals (no LPS) administered oral Beta-C 100 mg/kg"}}, "note": "Entries after “also recorded” stand apart in the source; their conditions may differ.", "data": [{"molecule": "CCCCCCCCCCCCCCCC(=O)NCCO", "note": "[PEA, N-palmitoylethanolamide]", "values": [{"measurement": "NGF-induced bladder hyper-reflexia and reduction of micturition threshold", "setting": "[1]", "result": "attenuated"}]}, {"molecule": "C=C1CC/C=C(\\C)CC[C@@H]2[C@@H]1CC2(C)C", "note": "[Beta-C, beta-caryophyllene]", "values": [{"measurement": "leukocyte rolling in bladder venules", "setting": "[2]", "result": "restored the level of leukocyte levels to that of control animals"}, {"measurement": "leukocyte adhesion in bladder venules", "setting": "[2]", "result": "significantly decreased the number of adhering leukocytes back to the level of healthy control animals"}, {"measurement": "leukocyte adhesion in bladder venules", "setting": "[2]; listed as BCP", "result": "decrease in leukocyte adherence comparable to groups instilled with various levels of DMSO"}, {"measurement": "capillary perfusion quantified through functional capillary density (FCD)", "setting": "[2]", "result": "highest overall values for FCD"}, {"measurement": "capillary perfusion quantified through functional capillary density (FCD)", "setting": "[2]; listed as BCP", "result": "restored perfusion to levels observed in healthy control animals; also recorded: significant improvement in FCD"}, {"measurement": "leukocyte adhesion in bladder venules", "setting": "[3]; LPS-induced cystitis, oral gavage 100 mg/kg Beta-C (with or without 100 mg/kg MSM) 60 minutes prior to LPS", "result": "significant decrease in the number of adherent leukocytes"}, {"measurement": "capillary perfusion quantified through functional capillary density (FCD)", "setting": "[3]; LPS-induced cystitis, oral gavage 100 mg/kg Beta-C (with or without 100 mg/kg MSM) 60 minutes prior to LPS, listed as BCP", "result": "no significant differences were observed in the treatment group; also recorded: did not significantly improve FCD"}, {"measurement": "leukocyte adhesion in bladder venules", "setting": "[3]; [13]", "result": "did not produce any significant changes in leukocyte adherence"}, {"measurement": "capillary perfusion quantified through functional capillary density (FCD)", "setting": "[3]; [13]", "result": "significant improvement in functional capillary density"}, {"measurement": "capillary perfusion quantified through functional capillary density (FCD)", "setting": "[3]; healthy animals (no LPS) administered oral Beta-C 100 mg/kg, listed as BCP", "result": "significant improvement in FCD"}, {"measurement": "behavioural results for eye opening", "setting": "[4]; oral BCP 100 mg/kg 60 minutes prior to LPS, vs untreated LPS, FIG. 22", "result": "significant improvement"}, {"measurement": "behavioural results for motor activity", "setting": "[4]; oral BCP 100 mg/kg 60 minutes prior to LPS, vs untreated LPS, FIG. 23", "result": "Significant improvements"}, {"measurement": "behavioural results for posture", "setting": "[4]; oral BCP 100 mg/kg 60 minutes prior to LPS, vs untreated LPS, FIG. 24", "result": "Significant improvements"}, {"measurement": "total composite score of behavioural results (behavioural pain score)", "setting": "[4]; oral BCP 100 mg/kg 60 minutes prior to LPS, vs untreated LPS, FIG. 25", "result": "significant reduction in behavioural pain score"}, {"measurement": "behavioural results for breathing rate", "setting": "[4]; oral Beta-C 100 mg/kg 60 minutes prior to LPS, T1 vs untreated LPS, FIG. 21", "result": "significant reduction in breathing rate"}, {"measurement": "amount of force applied via electronic von Frey aesthesiometer before a response (withdrawal threshold)", "setting": "[5]", "result": "significant improvement in withdrawal threshold"}, {"measurement": "analgesic and anti-inflammatory effects", "setting": "[6]", "result": "analgesic and anti-inflammatory effects"}, {"measurement": "local anesthetic actions", "setting": "[7]", "result": "dose-dependent local anesthetic actions comparable to procaine"}, {"measurement": "leukocyte adhesion in bladder venules", "setting": "[8]; 100 mg/kg Beta-C injected 15 min after LPS, IVM two hours after treatment, vs LPS, FIG. 1", "result": "significantly decreased the number of adhering leukocytes"}, {"measurement": "capillary perfusion quantified through functional capillary density (FCD)", "setting": "[8]; 100 mg/kg Beta-C injected, FIG. 3", "result": "restored perfusion to levels observed in healthy control animals"}, {"measurement": "leukocyte rolling in bladder venules", "setting": "[8]; 100 mg/kg Beta-C injected, vs endotoxemia group, FIG. 2", "result": "did not significantly alter the number of rolling leukocytes"}]}, {"molecule": "C[S+](C)[O-]", "note": "[DMSO, Dimethyl sulfoxide]", "values": [{"measurement": "leukocyte rolling in bladder venules", "setting": "[2]", "result": "did not improve leukocyte rolling"}, {"measurement": "leukocyte adhesion in bladder venules", "setting": "[2]", "result": "retained a high level of activated leukocytes"}, {"measurement": "capillary perfusion quantified through functional capillary density (FCD)", "setting": "[2]", "result": "did improve perfusion, it did not return perfusion to the levels observed in healthy control animals"}, {"measurement": "treatment failure rate", "setting": "[9]", "result": "high failure rate"}, {"measurement": "leukocyte adhesion in bladder venules", "setting": "[10]; FIG. 6", "result": "did not significantly decrease leukocyte adherence"}, {"measurement": "leukocyte rolling in bladder venules", "setting": "[10]; FIG. 7", "result": "did not show any significant difference when compared to the endotoxemia group"}, {"measurement": "capillary perfusion quantified through functional capillary density (FCD)", "setting": "[10]; FIG. 8", "result": "did improve perfusion, it did not return perfusion to the levels observed in healthy control animals"}]}, {"molecule": "CS(C)(=O)=O", "note": "[Methylsulfonylmethane]", "values": [{"measurement": "effective treatment, number of patients suffering from IC", "setting": "[11]", "result": "4 out of 6"}]}, {"molecule": "CCCCC/C=C\\C/C=C\\C/C=C\\C/C=C\\CCCC(=O)NCCO", "note": "[AEA, N-arachidonoylethanolamine]", "values": [{"measurement": "NGF-induced bladder hyper-reflexia and reduction of micturition threshold", "setting": "[1]", "result": "attenuated"}]}, {"molecule": "pentosan polysulfate [PPS]", "values": [{"measurement": "effect of PPS treatment (proportion of patients)", "setting": "[12]", "result": "limited to only a quarter of patients"}]}]}
